Measured values from patent US20220211710A1, “COMPOSITIONS AND METHODS FOR TREATING CANCER WITH NUCLEOSIDE-METABOLISM MODULATORS” (The Regents of the University of California, priority 2019, published 2022).

Tests used:
Assay type in all cases: cell-based, human
[1] = test system: CCRF-CEM SAMHD1 over-expressing cells; assay: Cell Titer Glo proliferation, CCRF-CEM SAMHD1 over-expressing
Description: (§1) For CellTiter-Glo analysis cells were plated at 1×10^3 cells/well in 50 μl/well in white opaque 384-well plates and treated as described. Following incubation 50 μl of CellTiter-Glo reagent (Diluted 1:5 in dH2O) was added to each well, plates incubated at room temperature for 5 m and luminescence was measured using a BioTek microplate luminescence reader. Proliferation rate normalized growth inhibition was calculated using the previously described GR metric (Hafner et al., 2016).

HCC827 cells [2] = assay: Cell Titer Glo proliferation, HCC827; conditions: for IC50: Homo sapiens, HCC827, 72 h, +10 μM dG
Description: as §1

SUIT2 cells [3] = assay: Cell Titer Glo proliferation, SUIT2 wild-type; conditions: SUIT2 (SAMHD1-proficient), 72 h, +5 μM dG
Description: as §1

SUIT2 SAMHD1 KO cells [4] = assay: Cell Titer Glo proliferation, SUIT2 SAMHD1 knockout; conditions: 72 h
Description: as §1

JURKAT cells = assay: Cell Titer Glo proliferation, JURKAT
Description: as §1

NALM6 cells [5] = assay: Cell Titer Glo proliferation, NALM6; conditions: NALM6 (SAMHD1-proficient), 72 h, +1 μM dG
Description: as §1

CCRF-CEM cells [6] = assay: Cell Titer Glo proliferation, CCRF-CEM (YFP control)
Description: as §1

SUIT2 SAMHD1 KO cells [7] = assay: Immunoblot analysis, SUIT2 SAMHD1 knockout
Description: (§2) PBS-washed cell pellets were re-suspended in cold RIPA buffer supplemented with protease and phosphatase inhibitors. Protein lysates were normalized using BCA assay, diluted using RIPA and 4× laemmli loading dye, resolved on 4-12% Bis-Tris gels and electro-transferred to nitrocellulose membranes. After blocking with 5% nonfat milk in TBS+0.1% Tween-20 (TBS-T), membranes were incubated overnight in primary antibodies diluted (per manufacturers instructions) in 5% BSA in TBS-T. Membranes were washed with TBST-T and incubated with HRP-linked secondary antibodies prepared at a 1:2500 dilution in 5% nonfat dry milk in TBS-T. HRP was activated by incubating membranes with a mixture of SuperSignal Pico and SuperSignal Femto ECL reagents (100:1 ratio). Exposure of autoradiography film was used for detection.

SUIT2 SAMHD1 KO cells [8] = assay: Crystal violet proliferation analysis, SUIT2 SAMHD1 knockout; conditions: 7 d
Description: (§3) For crystal violet staining, cells were plated in 6-well cell culture plates at 1×10^4 cells/well and treated as described. Following treatment cells were fixed by incubating in 4% PFA in PBS for 15 m at room temperature. Plates were subsequently washed with PBS and stained with 0.1% crystal violet in H2O for 15 m at room temperature.

SUIT2 cells [9] = assay: Immunoblot analysis, SUIT2 wild-type; conditions: SUIT2 parental, 5 μM dG + 1 μM forodesine, 24 h
Description: as §2

CCRF-CEM cells [10] = assay: Immunoblot analysis, CCRF-CEM; conditions: 5 μM dG + 1 μM BCX-1777, 24 h
Description: as §2

[11] = test system: SAMHD1-deficient primary melanoma cell lines; assay: Propidium iodide cell cycle analysis, SAMHD1-deficient primary melanoma models; conditions: only SAMHD1-deficient melanoma models, 1 μM PNPi + 10 μM dG, 24 h
Description: (§4) Treated cells were washed with PBS and suspended in propidium iodide cell cycle staining solution (100 μg/ml propidium iodide; 20 μg/ml Ribonuclease A). 10,000 events were collected per sample. All flow cytometry data were acquired on five-laser BD LSRII, and analyzed using FlowJo software (Tree Star).

MOLT-4 cells = assay: Cell Titer Glo proliferation, MOLT-4; conditions: MOLT-4, 5 μM dG + 1 μM BCX-1777, 72 h
Description: as §1

[12] = test system: CCRF-CEM SAMHD1 over-expressing cells; assay: Propidium iodide cell cycle analysis, CCRF-CEM SAMHD1 over-expressing; conditions: CCRF-CEM expressing SAMHD1, 5 μM dG + 1 μM BCX-1777, 24 h
Description: as §4

HCC827 cells [13] = assay: Crystal violet proliferation analysis, HCC827; conditions: HCC827, 5 μM dG + 1 μM PNPi, 7 d
Description: as §3

B-ALL cell lines = assay: Cell Titer Glo proliferation, B-ALL models; conditions: 5 μM dG + 1 μM BCX-1777, 72 h
Description: as §1

[14] = test system: CCRF-CEM CDA over expressing cells; assay: Cell Titer Glo proliferation, CCRF-CEM CDA over-expressing; conditions: CCRF-CEM overexpressing CDA, 10 μM dG + 1 μM BCX-1777 + dC, 72 h
Description: as §1

NALM6 cells [15] = assay: Immunoblot analysis, NALM6; conditions: NALM6, 5 μM dG + 1 μM BCX-1777, 24 h
Description: as §2

[16] = test system: SAMHD1-deficient primary melanoma cell lines; assay: Crystal violet proliferation analysis, SAMHD1-deficient primary melanoma models; conditions: 1 μM PNPi + 10 μM dG, 7 d
Description: as §3

T-ALL cell lines = assay: Propidium iodide cell cycle analysis, T-ALL models; conditions: T-ALL models only, 5 μM dG + 1 μM BCX-1777, 24 h
Description: as §4

HCC827 cells [17] = assay: Propidium iodide cell cycle analysis, HCC827; conditions: HCC827, 5 μM dG + 1 μM BCX-1777, 24 h
Description: as §4

O=c1[nH]cnc2c(CN3C[C@H](CO)[C@@H](O)C3)c[nH]c12 [ulodesine]
proliferation (ulodesine) ([1]; CCRF-CEM overexpressing SAMHD1, 72 h, +1 μM dG): resistance | proliferation (ulodesine) (HCC827 cells [2]; HCC827 (SAMHD1 deficient), 72 h, +5 μM dG): selectively impaired the proliferation | IC50 (HCC827 cells [2]): 21 nM | proliferation (ulodesine) (SUIT2 cells [3]): not exhibiting any activity | proliferation (ulodesine) (SUIT2 SAMHD1 KO cells [4]; SUIT2 CRISPR/Cas9 SAMHD1 knockout, +5 μM dG): sensitive | proliferation (ulodesine) (JURKAT cells; JURKAT (SAMHD1 deficient), 72 h, +1 μM dG): selectively impaired the proliferation | proliferation (ulodesine) (NALM6 cells [5]): not exhibiting any activity | proliferation (ulodesine) (CCRF-CEM cells [6]; CCRF-CEM (SAMHD1 deficient), 72 h, +1 μM dG): selectively impaired the proliferation

NC(=S)N/N=C/c1ncccc1N [3-AP]
selectivity for SAMHD1 KO over WT cells (SUIT2 SAMHD1 KO cells [4]; SUIT2 SAMHD1 KO vs WT): did not extend

(R)-DI-82 [dCK inhibitor]
effect of dCK inhibitor on PNPi-induced DNA damage (SUIT2 SAMHD1 KO cells [7]; SUIT2 SAMHD1 knockout, 5 μM dG + 1 μM forodesine + 1 μM (R)-DI-82, 24 h): completely prevented | effect of dCK inhibitor on PNPi anti-proliferative effect (SUIT2 SAMHD1 KO cells [8]; SUIT2 SAMHD1 knockout, 5 μM dG + 1 μM PNPi + 1 μM dCKi): completely blocked

Cc1cn([C@H]2C[C@H](O)[C@@H](CO)O2)c(=O)[nH]c1=O [thymidine]
induction of pCHEK1S345 and pH2A.XS139 (SUIT2 SAMHD1 KO cells [7]; SUIT2 SAMHD1 KO vs WT, 100 μM dT, 24 h): enhanced

O=c1[nH]cnc2c([C@@H]3N[C@H](CO)[C@@H](O)[C@H]3O)c[nH]c12 [Forodesine]
DNA damage in response to PNPi (SUIT2 SAMHD1 KO cells [7]; SUIT2 SAMHD1 knockout, 5 μM dG + 1 μM forodesine, 24 h): exhibited DNA damage | response to PNPi (DNA damage) (SUIT2 cells [9]): completely resistant | anti-proliferative effect of PNPi ([1]; CCRF-CEM expressing SAMHD1, 5 μM dG + 1 μM BCX-1777, 72 h): completely resistant | DNA damage (H2AXS139 phosphorylation) (CCRF-CEM cells [10]): induced DNA damage | apoptosis (cleaved caspase 3 accumulation) (CCRF-CEM cells [10]): apoptosis | IC50 (HCC827 cells [2]): 71 nM | cell cycle [11]: induced cell cycle arrest | anti-proliferative effect of the combination with dG (MOLT-4 cells): eradicated | cytotoxic effect of PNPi [12]: completely resistant | proliferation, crystal violet (SUIT2 SAMHD1 KO cells [8]; only SUIT2 SAMHD1 knockout cells, 5 μM dG + 1 μM PNPi): could be prevented | proliferation, crystal violet (HCC827 cells [13]): proliferation inhibition | anti-proliferative effect of the combination with dG (B-ALL cell lines): unaffected | anti-proliferative effect of the combination with dG (JURKAT cells; JURKAT, 5 μM dG + 1 μM BCX-1777, 72 h): eradicated | dC rescue of the anti-proliferative effect of PNPi [14]: prevented this rescue | DNA damage and apoptosis (NALM6 cells [15]): not in NALM6 cells | proliferation with dC supplementation (CCRF-CEM cells [6]; CCRF-CEM YFP, 10 μM dG + 1 μM BCX-1777 + 1 μM dC, 72 h): 60 % of control | proliferation (CCRF-CEM cells [6]; CCRF-CEM YFP, 10 μM dG + 1 μM BCX-1777, 72 h): 1 % of control | anti-proliferative effect of the combination with dG (CCRF-CEM cells [6]; CCRF-CEM, 5 μM dG + 1 μM BCX-1777, 72 h): eradicated | proliferation, crystal violet [16]: selectively inhibited proliferation | percentage of sub-G1 cells (marker for cell death) (T-ALL cell lines): increase in the percentage of sub-G1 cells | cell cycle (HCC827 cells [17]): induced cell cycle arrest
